Reference: patent publication US6878364B2, “Animal model for flaviviridae infection” (Cornell Research Foundation, Inc., priority 2000, dated 2005)
Where two headings read alike, the source gives them in different places.

Key:
[1] = Cytotoxicity on uninfected woodchuck primary hepatocytes (CytoTox96); format: cell-based
[2] = Cytotoxicity on uninfected WCH-8 cells (methylene blue assay); format: cell-based; settings: woodchuck, uninfected woodchuck hepatic WCH-8 cells, three days of treatment
in vitro = format: cell-based; settings: bovine
[3] = tested on: cpBVDV (cytopathogenic NADL isolate of BVDV)
Procedure: Virus propagated in bovine cells and woodchuck cell cultures was tittered in NCL cells by measuring cytopathic effects (CPE). NCL cells grown to confluence, were passaged to 96 well microtiter plates at a density of 2×10^4 cells/well (5×10^5/cm^2) and incubated for one hour to allow cell attachment. After attachment, cell cultures were inoculated with serially diluted tissue culture supernatant samples. The endpoint BVDV titer was taken as the reciprocal of the last dilution in which cells were killed 5 days post-infection in one of three triplicate wells, assayed by methylene blue staining.
Antiviral assay: A lyophilized form of Ribavirin (Virazole^R; Viratek, Inc., Covina, Calif.) was dissolved in H2O to a yield a stock concentration of 100 mM and serially diluted two fold in culture medium prior to testing over a range of 100-0.049 μM. Ribavirin was evaluated in woodchuck WCH-8 cells and in bovine NCL cells in a 96 well format using the methylene blue assay to measure cell viability. The medium was replenished daily with drug and the antiviral effect, cytotoxicity, and reduction in viral yield determined after three days of treatment. […]
Cell killing due to cpBVDV infection and drug cytotoxicity was calculated for each experimental data point and plotted. […] A selectivity index (SI) was determined as the CC50/EC90 ratio.

[4] = tested on: cpBVDV (cytopathogenic NADL isolate of BVDV); remark: listed apart in the source
Procedure: (§1) BVDV stocks and titration: The cytopathogenic NADL isolate of BVDV (cpBVDV) was used for the purposes of this study. A viral stock was made by freeze-thaw of a bovine testicular cell line 5 days after infection with cpBVDV. Virus propagated in bovine cells and woodchuck cell cultures was tittered in NCL cells by measuring cytopathic effects (CPE). NCL cells grown to confluence, were passaged to 96 well microtiter plates at a density of 2×10^4 cells/well (5×10^5/cm^2) and incubated for one hour to allow cell attachment. After attachment, cell cultures were inoculated with serially diluted tissue culture supernatant samples. The endpoint BVDV titer was taken as the reciprocal of the last dilution in which cells were killed 5 days post-infection in one of three triplicate wells, assayed by methylene blue staining.
(§2) Methylene blue assay: A quantitative measure of cell numbers was obtained through reading the absorbance of methylene blue (Sigma, St. Louis, Mo.) uptake by viable cells. Briefly, three days after infection of cells with cpBVDV, cultures were rinsed with phosphate buffered saline (PBS; Life Technologies) followed by fixation in a Hanks balanced salt solution (HBSS; LifeTechnologies) consisting of 1.25% glutaraldehyde (Fisher Scientific, Fair Lawn, N.J.) and 0.06% methylene blue (Sigma), for 1 hour at 37° C. […] The absorbance of the methylene blue in solution was measured using an ELISA plate reader (Model EL311; Bio-Tek instruments Inc., Winooski, Vt.) with a light filter setting at 630 nm. A standard curve was established for each cell line relating absorbance with cell numbers. […]
(§3) The medium was replenished daily with drug and the antiviral effect, cytotoxicity, and reduction in viral yield determined after three days of treatment.
(§4) Cell killing due to cpBVDV infection and drug cytotoxicity was calculated for each experimental data point and plotted. […] A drug concentration sufficient to inhibit 50% of viral induced cell killing (ckEC50) was determined using a peak, log normal, 4 parameter equation. […] A selectivity index (SI) was determined as the CC50/EC90 ratio.

[5] = tested on: cpBVDV (cytopathogenic NADL isolate of BVDV); remark: listed apart in the source
Procedure: as §1, §2, §3, §4

HCV = settings: cited from earlier work
[6] = tested on: cpBVDV (cytopathogenic NADL isolate of BVDV); assay: microbe, parasite or virus in culture; settings: Bovine viral diarrhea virus isolates and strains, in Marmota monax, 72 h, read-out: ckEC50 (drug concentration sufficient to inhibit 50% of viral induced cell killing)
Procedure: as §1, §2, §3, §4

[7] = tested on: cpBVDV (cytopathogenic NADL isolate of BVDV); assay: microbe, parasite or virus in culture; settings: Bovine viral diarrhea virus isolates and strains, in Bos taurus, 72 h, read-out: ckEC50 (drug concentration sufficient to inhibit 50% of viral induced cell killing)
Procedure: as §1, §2, §3, §4

NC(=O)c1ncn([C@@H]2O[C@H](CO)[C@@H](O)[C@H]2O)n1 [Ribavirin, 1-β-D-ribofuranosyl-1-1,2,4-triazole-3-carboxamide]
CC50 [1]: 44.8 µM
CC50 at 3 days [2]: 2.9 µM
CC50 at 3 days (in vitro): 4.3 µM
tEC90 (drug concentration which reduced viral titers by 90%) ([3]; cpBVDV-infected woodchuck primary hepatocytes): 3 µM
selectivity index (CC50/tEC90) ([3]; woodchuck primary hepatocytes): 14.9
selectivity index (CC50/tEC90) ([4]; WCH-8 cells): 2.7
tEC90 (drug concentration which reduced viral titers by 90%) ([4]; cpBVDV-infected WCH-8 cells, three days of treatment): 1.1 µM
selectivity index (CC50/tEC90) ([5]; NCL cells): 1.7
tEC90 (drug concentration which reduced viral titers by 90%) ([5]; cpBVDV-infected NCL cells, three days of treatment): 3.1 µM
patients with serum amino transferase levels reduced to normal (HCV): 40%
EC50 [6]: 1.5 µM
EC50 [7]: 5.2 µM
